Series [1] in a line: Hydrolysis of MIDA boronate derivatives under slow release conditions (K3PO4, THF-d8/D2O, 60° C., 1H NMR). It counts as physicochemical. The note with it: for krel, relative rate constant for hydrolysis with respect to MIDA (krel=1): 5:1 THF-d8:D2O, 7.5 eq. K3PO4, 60° C.; for boronate remaining: at 6 hours; for reduction in the rate of hydrolysis: relative to MIDA boronate. On the procedure:
Compounds 1-6 (FIG. 4A) were prepared and then characterized in terms of their rates of hydrolysis under defined conditions relative to MIDA compound 4. Reaction conditions were: 5:1 THF-d8:D2O, 0.07 M in boronate, 7.5 eq. K3PO4, 60° C. Reactions were stirred for 0.5 to 2.0 h before being cooled and diluted with DMSO-d6 containing 1,4-dimethoxybenzene as an internal standard. ^1H NMR was taken immediately to determine % boronate remaining. For compounds 1, 2, and 3, n=2 and the average between the two runs is represented in the figure.
To each of twelve 1 mL conical vials equipped with stirring vanes was added 100 μL (0.08 M, 0.008 mmol) of a THF-d8 solution of the indicated boronate, followed by 20 μL (3.0 M, 0.06 mmol, 7.5 eq.) of a D2O solution of K3PO4. Each vial was then capped, shaken briefly to mix, and then stirred in a 60° C. heat block at 800 RPM. At the indicated times, two vials were removed from the heat block, cooled briefly under a stream of air, and then had 680 μL DMSO-d6 containing 1,4-dimethoxybenzene (˜0.008 M) as an internal standard added. The vials were then again briefly capped, shaken to mix, and the solutions were then immediately transferred to NMR tubes and spectra were taken (16 scans, d1=10 s). Time points were taken at 0, 0.5, 1, 1.5, 2.0, 4.0, and 6.0 hours. The solutions for the 0 time points were made directly in the NMR tubes, shaken, and then had spectra obtained. The percentage boronate remaining was determined by average the integration of the aryl protons (which fully resolved from the corresponding aryl protons on the parent boronic acid) across the two runs, except in the case of octyl TIDA boronate, for which the terminal methyl group of the octyl chain was used. Relative rate constants were obtained by assuming pseudo-first order kinetics and plotting the natural log of percentage boronate remaining vs time (ie. ln([boronate]/[boronate]o) vs t) (FIG. 13).
Each time point represents the average of n=2 experiments, except in the case of the N-Cy and N-iPr MIDA, for which n=1.

Series [2] in a line: Solubility of boronates in room temperature THF (NMR vs internal standard). It counts as physicochemical. As for the experimental part: To determine the solubility of each boronate given in the following table, a concentrated solution was prepared by repeated addition to a small amount (˜200 μL) of room temperature THF in a 7-mL vial until solid no longer dissolved upon stirring. The vials were then allowed to stir at room temperature overnight. […] 100 μL of the mixture was then filtered and had solvent removed. The residue was then taken up in 500 μL DMSO-d6 containing 1,4-dimethoxybenzene (˜0.01 M) as an internal standard and transferred to an NMR tube. The concentrations of the solutions were then determined by integration relative to internal standard. In each case, the measurements are an average of two experiments.

Setting [3] is: slow release hydrolysis conditions.

p-Tolyl DiethylMIDA Boronate: the “krel, relative rate constant for hydrolysis with respect to MIDA (krel=1)” value (“krel, relative rate constant” below) in series [1] is 0.12.
As to 5-Formyl-2-furanyl TIDA Boronate, the “solubility in THF” value in series [2] was found to be 212 mM.
Turning to “Octyl TIDA Boronate [octylTIDA boronate]”, the “hydrolysis after 6 hours (in words)” value in series [1] (after 6 hours, slow release hydrolysis conditions) was “no measurable hydrolysis”. For the same compound, the “solubility in THF (in words)” value in series [2] is recorded as “completely soluble”.
On to p-Tolyl DibutylMIDA boronate [R=nBu], for which the boronate remaining result in series [1] (setting [3]) is given as “about 25%”.
As for `CN1CC(=O)OB(c2ccc(C=O)o2)OC(=O)C1` [5-Formyl-2-furyl MIDA boronate, reference compound], in series [2], the “solubility in THF” value is “trace”.
As to p-Tolyl SchMIDA Boronate, in series [1], the “krel, relative rate constant” value amounted to 0.092 and the “reduction in the rate of hydrolysis” value is recorded as 10.9 fold.
As to `Cc1ccc([B-]23OC(=O)C(C)(C)[N+]2(C)C(C)(C)C(=O)O3)cc1` (stereo not shown) [p-tolylTIDA boronate, p-Tolyl TIDA Boronate], the “solubility in THF (in words)” value in series [2] is “lack of solubility”.
Consider p-Tolyl DimethylMIDA Boronate, for which, in series [1], the “krel, relative rate constant” value was determined as 0.08 and the “reduction in the rate of hydrolysis” value worked out at 12.5 fold. The compound also registered a boronate remaining in series [1] (setting [3]) of about 80%. Moreover, the “rate of hydrolysis with added phase transfer catalyst (in words)” value in series [1] (free dibutyl ligand or tetrabutylammonium bromide added) is “hydrolyzed faster than the lone boronate”.

These data come from US10844081B2, “Protected organoboronic acids with tunable reactivity, and methods of use thereof” (The Board of Trustees of the University of Illinois, priority 2015, dated 2020).
